Data taken from patent US20100068150A1, “Selective Caspase Inhibitors” (The Board of Trustees of the Leland Stanford Junior …, priority 2006, published 2010).

Assays:
Format in all cases: biochemical
Caspase-3 = molecular target: T1, Caspase-3 (Homo sapiens, UniProt P42574); test: Kinetic compound screening, progress curve method, caspase-3; details: for Ki(app) Caspase-3: Table III, Ki(app) = Kass or Kobs/I, 5 nM active caspase-3; for Caspase-3 Ki(app): Table IV
T1 sequence (P42574 29-175 limits assumed): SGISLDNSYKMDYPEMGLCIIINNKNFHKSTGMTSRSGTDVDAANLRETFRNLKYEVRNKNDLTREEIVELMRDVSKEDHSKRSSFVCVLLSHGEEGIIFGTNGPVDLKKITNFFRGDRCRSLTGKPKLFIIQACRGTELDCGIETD
T1 sequence (P42574 176-277 limits assumed): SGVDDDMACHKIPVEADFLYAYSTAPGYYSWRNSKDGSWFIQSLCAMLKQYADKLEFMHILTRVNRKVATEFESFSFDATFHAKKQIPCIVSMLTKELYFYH
From the text: (§1) Table III below presents Ki(app) values for select AB compounds. Ki(app) values (also called Kass or Kobs/I) represent the speed of inhibitor binding to a target enzyme. Units are [M^−1s^−1]. NI indicates no inhibition at concentrations tested. Parent compounds AB09, ABo8, and AB07 that include the optimal substrate specificity sequences for caspases-3, […] as determined by Thornberry and colleagues (Thornberry et al., 19970 are included between double lines.
(§2) The inhibitors AB07 (NP-LEHD-AOMK, caspase-9), AB08 (NP-LETD-AOMK, caspase-8), and AB09 (NP-DEVD-AOMK, caspase-3) were synthesized and kinetic inhibition constants (Kiapp) were obtained for all compounds for caspases 3, 7, 8 and 9 using the progress curve method for pseudo-first order reactions kinetics (Salvesen, 1989) (structures shown in Table I). […] Ki(app) values (also called Kass or Kobs/I) represent the speed of inhibitor binding to a target enzyme. Units are [M-1s-1]. NI indicates no inhibition at concentrations tested, ND indicates data not determined, SD indicates standard deviation.
(§3) Compound screening was completed using the progress curve method as described (Salvesen, 1989). All screening was carried out in caspase reaction buffer. The caspase-9 specific compounds AB38, 40, 41 and 42 were screened in caspase reaction buffer and in caspase buffer with 1M sodium citrate instead of sucrose as described (Pop, 2006) The concentrations of active caspases used is as follows: 5 nM active caspase-3, 5 nM active caspase-7, 10 nM active caspase-8, and 50 nM active caspase-9. To ensure full activation, caspases 3/7, 8 and 9 were preincubated at 37° C. for 5, 10, or 40 minutes respectively before kinetic measurements were made.

Caspase-7 = molecular target: T2, Caspase-7 (Homo sapiens, UniProt P55210); test: Kinetic compound screening, progress curve method, caspase-7; details: for Ki(app) Caspase-7: Table III, Ki(app) = Kass or Kobs/I, 5 nM active caspase-7; for Caspase-7 Ki (app): Table IV
T2 sequence (P55210 1-303): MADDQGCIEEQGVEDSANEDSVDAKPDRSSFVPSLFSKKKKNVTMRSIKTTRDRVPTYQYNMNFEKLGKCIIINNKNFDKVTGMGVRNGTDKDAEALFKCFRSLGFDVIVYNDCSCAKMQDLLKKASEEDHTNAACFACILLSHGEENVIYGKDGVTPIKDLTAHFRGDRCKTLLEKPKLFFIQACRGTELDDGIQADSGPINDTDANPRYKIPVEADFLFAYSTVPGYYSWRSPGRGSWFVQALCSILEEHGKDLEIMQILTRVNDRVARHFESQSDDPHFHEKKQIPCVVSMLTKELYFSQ
From the text: as §1, §2, §3

[1] = tested on: recombinant caspases-3, 7, 8 and 9; test: Indirect competition with general probe KMB01 on individual recombinant caspases; details: 100 nM caspase, inhibitor 30 min, then 5 μM KMB01 30 min; range of concentrations
Procedure: (a.) Indirect competition of a panel of inhibitors with the general caspase probe KMB01. Individual caspases-3, 7, 8 and 9 (100 nM each) were incubated with the indicated inhibitors for 30 minutes followed by a 30 minute incubation with KMB01. Samples were analyzed by SDS-PAGE and residual active site labeling was visualized by biotin blotting using streptavidin-HRP. (b.) Direct labeling of caspase active sites using specific ABPs. Equal amounts of active caspaseses-3, 8, and 9 ([…]) were incubated together with increasing concentrations of each of the indicated biotinylated active site probes for 30 minutes. Active site labeling was visualized by SDS-PAGE analysis followed by biotin blotting using streptavidin HRP. (*) Indicates labeling of the full-length form of caspase-3 that is only observed using recombinant enzyme preparations.
We initially focused on recombinant caspase3, 7, 8, and 9. Each caspase was individually pre-incubated with our optimal series of selective inhibitors at a range of concentrations and residual activity was measured by addition of the general caspase probe KMB01. Overall, the competition data mirrored the kinetic data with caspase-3 and 8-specific compounds showing specific competition of the desired target.
This was shown by analysis of inhibitor and probe selectivity by indirect competition and direct labeling of recombinant caspases. Indirect competition of a panel of inhibitors with the general caspase probe KMB01 was carried out with individual caspases-3, 7, 8 and 9 (100 nM each), which were incubated with the specific inhibitors for 30 minutes followed by a 30-minute incubation with KMB01. Samples were analyzed by SDS-PAGE and residual active site labeling was visualized by biotin blotting using streptavidin-HRP. Also, the direct labeling of caspase active sites was carried out using specific ABPs. Equal amounts of active caspaseses-3, 8, and 9 ([…]) were incubated together with increasing concentrations of each of the indicated biotinylated active site probes for 30 minutes. Active site labeling was visualized by SDS-PAGE analysis followed by biotin blotting using streptavidin HRP.
For all competition and direct labeling experiments recombinant caspases were pre-incubated in caspase reaction buffer for 15 minutes at 37° C. For competition experiments, 100 nM of active site titrated caspase was incubated for 30 minutes at 37° C. with appropriate inhibitor and then residual active sites were labeled with 5 μM KMB01 for an additional 30 minutes. For direct labeling, 100 nM caspase-3, 8, and 9 were incubated together in the presence of appropriate ABPs at the indicated concentrations for 30 min at 37° C.

Caspase-8 = Caspase-8 (Homo sapiens, UniProt Q14790); test: Kinetic compound screening, progress curve method, caspase-8; details: for Ki(app) Caspase-8: Table III, Ki(app) = Kass or Kobs/I, 10 nM active caspase-8; for Caspase-8 Ki (app): Table IV, NI = no inhibition at concentrations tested
Chain of Caspase-8 (Q14790 217-479): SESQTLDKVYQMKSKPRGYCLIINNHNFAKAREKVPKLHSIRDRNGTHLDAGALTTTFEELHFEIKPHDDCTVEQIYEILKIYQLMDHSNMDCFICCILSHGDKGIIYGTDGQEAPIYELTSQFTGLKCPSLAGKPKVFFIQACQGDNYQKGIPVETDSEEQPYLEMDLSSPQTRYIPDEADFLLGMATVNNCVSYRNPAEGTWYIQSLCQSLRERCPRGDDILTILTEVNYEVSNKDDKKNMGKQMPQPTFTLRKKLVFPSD
From the text: as §1, §2, §3

Caspase-9 = molecular target: T3, Caspase-9 (Homo sapiens, UniProt P55211); test: Kinetic compound screening, progress curve method, caspase-9; details: NI = no inhibition at concentrations tested; for Ki(app) Caspase-9: Table III, Ki(app) = Kass or Kobs/I, 50 nM active caspase-9; for Caspase-9 Ki (app): Table IV
T3 sequence (P55211 1-416): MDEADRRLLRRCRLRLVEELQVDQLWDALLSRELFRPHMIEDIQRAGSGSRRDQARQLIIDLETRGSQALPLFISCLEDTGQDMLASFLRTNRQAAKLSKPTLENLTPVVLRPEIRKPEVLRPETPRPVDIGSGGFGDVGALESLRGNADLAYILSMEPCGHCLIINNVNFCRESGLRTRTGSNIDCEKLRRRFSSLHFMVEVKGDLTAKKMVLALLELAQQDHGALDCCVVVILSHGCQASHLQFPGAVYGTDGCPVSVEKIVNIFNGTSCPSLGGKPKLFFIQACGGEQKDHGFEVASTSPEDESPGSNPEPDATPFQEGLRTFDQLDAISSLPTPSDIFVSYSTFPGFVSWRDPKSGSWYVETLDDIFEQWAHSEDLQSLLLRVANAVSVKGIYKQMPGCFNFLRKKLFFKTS
From the text: as §1, §2, §3

SMILES	Ki(app) Caspase-3 (Caspase-3)	Caspase-3 Ki(app) (Caspase-3)	Ki(app) Caspase-7 (Caspase-7)	Caspase-7 Ki (app) (Caspase-7)	Ki(app) Caspase-8 (Caspase-8)	Caspase-8 Ki (app) (Caspase-8)	Ki(app) Caspase-9 (Caspase-9)	Caspase-9 Ki (app) (Caspase-9)	competition for KMB01 labeling of recombinant caspases [1]
CC[C@H](NC(=O)[C@@H](CCC(=O)O)NC(=O)c1ccccc1N)C(=O)N[C@@H](CC(=O)O)C(=O)COC(=O)c1c(C)cccc1C [AB28, NH2-6-E-8-D-DMBA]	1,020,213 M^−1s^−1	1,020,213 M-1s-1	272,619 M^−1s^−1	272,619 M-1s-1	817,077 M^−1s^−1	817,077 M-1s-1	300,767 M^−1s^−1	300,767 M-1s-1	blocked labeling of all four caspases targets
CCC(C)C(NC(=O)Cc1ccc(O)c([N+](=O)[O-])c1)C(=O)N[C@@H](CC(C)C)C(=O)N[C@@H](C)C(=O)N[C@@H](CC(=O)O)C(=O)COC(=O)c1c(C)cccc1C (stereo partly drawn) [AB40, Np-I-L- A-D-AOMK]	261,470 M^−1s^−1	261,470 M-1s-1	11,256 M^−1s^−1	11,256 M-1s-1	35,174 M^−1s^−1	35,174 M-1s-1	48,867 M^−1s^−1	48,867 M-1s-1	no specific inhibition

The next lines start with results.

Ki(app) Caspase-3 (Caspase-3)	Caspase-3 Ki(app) (Caspase-3)	Ki(app) Caspase-7 (Caspase-7)	Caspase-7 Ki (app) (Caspase-7)	Ki(app) Caspase-8 (Caspase-8)	Caspase-8 Ki (app) (Caspase-8)	Ki(app) Caspase-9 (Caspase-9)	Caspase-9 Ki (app) (Caspase-9)	SMILES	competition for KMB01 labeling of recombinant caspases [1]
892,045 M^−1s^−1	892,045 M-1s-1	42,594 M^−1s^−1	42,594 M-1s-1	22,544 M^−1s^−1	22,544 M-1s-1	44,709 M^−1s^−1	44,709 M-1s-1	CCC(C)C(NC(=O)Cc1ccc(O)c([N+](=O)[O-])c1)C(=O)NC(Cc1ccccc1)C(=O)N1CCCC1C(=O)N[C@@H](CC(=O)O)C(=O)COC(=O)c1c(C)cccc1C (stereo partly drawn) [AB42, NP-I-F- P-D-AOMK]	minimal degree of selectivity for caspase-9 over caspase-8
46,108 M^−1s^−1	46,108 M-1s-1	27,814 M^−1s^−1	27,814 M-1s-1	19,676 M^−1s^−1	19,676 M-1s-1	18,004 M^−1s^−1	18,004 M-1s-1	Cc1cccc(C)c1C(=O)OCC(=O)[C@H](CC(=O)O)NC(=O)[C@H](C)NC(=O)[C@H](CC(C)C)NC(=O)C1CCCN1C(=O)Cc1ccc([N+](=O)[O-])c(O)c1 (stereo partly drawn) [AB38, Np-P-L- A-D-AOMK]	minimal degree of selectivity for caspase-9 over caspase-8
1,582,350 M^−1s^−1	1,582,350 M-1s-1	69,317 M^−1s^−1	69,317 M-1s-1	49,815 M^−1s^−1	49,815 M-1s-1	35,779 M^−1s^−1	35,779 M-1s-1	CCC(C)C(NC(=O)Cc1ccc(O)c([N+](=O)[O-])c1)C(=O)N[C@@H](CC(C)C)C(=O)N1CSCC1C(=O)N[C@@H](CC(=O)O)C(=O)COC(=O)c1c(C)cccc1C (stereo partly drawn) [AB41, Np-I-L-38-D-AOMK]	no specific inhibition
